Experimental data from patent publication US20230159463A1, “BENZONITRIC HETEROCYCLIC COMPOUND, PREPARATION METHOD THEREFOR AND USE THEREOF” (SHANGHAI ZHONGZE THERAPEUTICS, CO. LTD., priority 2020, published 2023).
pIC50: −log10 of the molar value. Like-named read-outs stand apart in the source and are kept apart here.

Tests used:
glioma cell line U-87MG = assay: In vitro anti-proliferative activity (CCK8), U-87MG; format: cell-based; details: Homo sapiens, read-out: U-87MG (Glioma) Inh % in 10 μM
[1] = test system: human liver cancer cell line HepG2; assay: In vitro anti-proliferative activity (CCK8), HepG2; format: cell-based; details: read-out: Hep G2 (Liver cancer) Inh % in 10 μM
Procedure: (§1) The specific results are shown in the table (unit: […] Test method: The tumor cells in the logarithmic growth phase with good growth status were inoculated into 96-well plates at 4×10^3 per well, and 8 duplicate wells were set up in each group. The cells were cultured in a cell incubator, after the cells adhered to the wall, […]. […] The experiment was repeated 3 times, and the average of the experimental results was taken as the final experimental result, and the inhibition rate was calculated.

[2] = test system: MRC-5 human normal embryo lung fibroblast; assay: In vitro anti-proliferative activity (CCK8), MRC-5 normal cells; format: cell-based; details: read-out: MRC-5 (Normal cell line) Inh % in 10 μM
HDAC6 = biological target: T1, HDAC6 (Homo sapiens, UniProt Q9UBN7); assay: HDAC6 inhibitor screening kit (Biovision), in vitro inhibitory activity; format: biochemical
T1 construct: purchased Biovision Company
T1 sequence (Q9UBN7 1-1215): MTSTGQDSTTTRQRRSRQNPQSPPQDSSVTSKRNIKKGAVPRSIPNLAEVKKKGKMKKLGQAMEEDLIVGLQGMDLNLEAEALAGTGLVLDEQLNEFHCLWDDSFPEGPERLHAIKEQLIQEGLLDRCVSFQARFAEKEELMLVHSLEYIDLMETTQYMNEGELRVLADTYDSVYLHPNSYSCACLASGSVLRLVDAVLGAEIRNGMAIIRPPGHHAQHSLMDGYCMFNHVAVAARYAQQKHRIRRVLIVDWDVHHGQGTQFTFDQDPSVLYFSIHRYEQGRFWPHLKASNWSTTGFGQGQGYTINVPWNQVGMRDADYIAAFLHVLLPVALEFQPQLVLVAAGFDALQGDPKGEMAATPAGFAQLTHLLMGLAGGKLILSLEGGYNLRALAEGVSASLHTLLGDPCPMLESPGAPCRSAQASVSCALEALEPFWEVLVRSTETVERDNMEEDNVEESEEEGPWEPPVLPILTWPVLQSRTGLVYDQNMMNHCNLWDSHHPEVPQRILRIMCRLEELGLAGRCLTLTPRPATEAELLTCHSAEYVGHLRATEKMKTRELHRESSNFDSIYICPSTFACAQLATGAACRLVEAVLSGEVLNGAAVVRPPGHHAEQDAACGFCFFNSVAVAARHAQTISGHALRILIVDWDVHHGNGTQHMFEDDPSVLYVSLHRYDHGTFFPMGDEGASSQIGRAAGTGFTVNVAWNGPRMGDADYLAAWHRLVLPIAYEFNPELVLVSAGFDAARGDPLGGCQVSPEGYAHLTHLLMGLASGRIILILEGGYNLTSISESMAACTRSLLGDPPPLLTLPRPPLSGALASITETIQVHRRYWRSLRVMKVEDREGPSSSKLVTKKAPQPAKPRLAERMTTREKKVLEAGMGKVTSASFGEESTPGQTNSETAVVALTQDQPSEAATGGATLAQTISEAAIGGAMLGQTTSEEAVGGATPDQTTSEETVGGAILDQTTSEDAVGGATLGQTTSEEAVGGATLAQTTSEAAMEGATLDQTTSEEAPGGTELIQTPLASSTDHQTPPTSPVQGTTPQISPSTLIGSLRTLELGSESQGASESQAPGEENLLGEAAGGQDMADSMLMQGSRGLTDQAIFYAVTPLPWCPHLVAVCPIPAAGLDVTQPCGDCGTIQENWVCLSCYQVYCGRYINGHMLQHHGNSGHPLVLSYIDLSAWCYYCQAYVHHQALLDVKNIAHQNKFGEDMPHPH
Procedure: (§2) The in vitro inhibitory activity of histone deacetylase of the compound was determined according to the instructions of HDAC1 and HDAC6 inhibitor screening kit (Biovision Company).

[3] = test system: human lung cancer cell line A549; assay: In vitro anti-proliferative activity (CCK8), A549; format: cell-based; details: read-out: A549 (Lung cancer) Inh % in 10 μM
Procedure: as §1

[4] = test system: mixed cells and primary neurons in rat cortex; assay: Protective effect on HCA-induced neuronal cell damage; format: cell-based; details: HCA 5 mmol/L; test concentration 0.1, 1.0 and 10.0 μM; compared with Tubastatin A at the same dose
[5] = test system: myeloma cell line RPMI 8226; assay: In vitro anti-proliferative activity (CCK8), RPMI 8226; format: cell-based; details: Homo sapiens, 48 hours, class symbol, read-out: RPMI 8226 (Myeloma) Inh % in 10 μM
Procedure: as §1

[6] = Maximum tolerance dose by intragastric administration; details: ICR, mouse, in vivo, po; mice, single intragastric administration, 14 days observation; read-out: maximum tolerated dose
Procedure: 40 ICR mice, half male and half […], weighing 18 to 20 g, were divided into 4 groups with 10 animals in each group. After 6 hours of fasting, the test samples in each group were taken with sterilized plastic syringe and orally gavaged at a volume of 0.3 mL/10 g. The general physical signs of animals and the death of animals were recorded at 1, 2 and 4 hours after administration. […] The dead animals were dissected to observe whether there were any visible pathological changes in the organs of the animals, and pathological examinations were carried out on suspicious tissues and organs.

HDAC1 = biological target: T2, HDAC1 (Homo sapiens, UniProt Q13547); assay: HDAC1 inhibitor screening kit (Biovision), in vitro inhibitory activity; format: biochemical
T2 construct: purchased Biovision Company
Procedure: as §2

hERG potassium channels = biological target: T3, hERG potassium channels (Homo sapiens, UniProt Q12809); assay: hERG potassium channel whole-cell patch clamp; format: cell-based; details: hERG-HEK293 cells, IKr current
T3 construct: expressed in transfected cells
Description: Whole-cell patch clamp technique was used to record the changes of hERG current (IKr) after different concentrations of compounds acted on HEK293 cells (hERG-HEK293 steady-state cells) expressing hERG potassium channels to study the half inhibitory concentration (IC50) of the above compounds on IKr.

[7] = test system: myeloma cell line RPMI 8226; assay: In vitro anti-proliferative activity (CCK8), RPMI 8226; format: cell-based; details: Homo sapiens, RPMI-8226, 48 h, read-out: RPMI 8226 (Myeloma) Inh % in 10 μM
[8] = 10 μM, 48 hours, CCK8, class symbol
[9] = HepG2, 10 μM, 48 hours, CCK8, class symbol
[10] = MRC5, 10 μM, 48 hours, CCK8, class symbol
[11] = A549, 10 μM, 48 hours, CCK8, class symbol

T3 sequence (Q12809 whole entry): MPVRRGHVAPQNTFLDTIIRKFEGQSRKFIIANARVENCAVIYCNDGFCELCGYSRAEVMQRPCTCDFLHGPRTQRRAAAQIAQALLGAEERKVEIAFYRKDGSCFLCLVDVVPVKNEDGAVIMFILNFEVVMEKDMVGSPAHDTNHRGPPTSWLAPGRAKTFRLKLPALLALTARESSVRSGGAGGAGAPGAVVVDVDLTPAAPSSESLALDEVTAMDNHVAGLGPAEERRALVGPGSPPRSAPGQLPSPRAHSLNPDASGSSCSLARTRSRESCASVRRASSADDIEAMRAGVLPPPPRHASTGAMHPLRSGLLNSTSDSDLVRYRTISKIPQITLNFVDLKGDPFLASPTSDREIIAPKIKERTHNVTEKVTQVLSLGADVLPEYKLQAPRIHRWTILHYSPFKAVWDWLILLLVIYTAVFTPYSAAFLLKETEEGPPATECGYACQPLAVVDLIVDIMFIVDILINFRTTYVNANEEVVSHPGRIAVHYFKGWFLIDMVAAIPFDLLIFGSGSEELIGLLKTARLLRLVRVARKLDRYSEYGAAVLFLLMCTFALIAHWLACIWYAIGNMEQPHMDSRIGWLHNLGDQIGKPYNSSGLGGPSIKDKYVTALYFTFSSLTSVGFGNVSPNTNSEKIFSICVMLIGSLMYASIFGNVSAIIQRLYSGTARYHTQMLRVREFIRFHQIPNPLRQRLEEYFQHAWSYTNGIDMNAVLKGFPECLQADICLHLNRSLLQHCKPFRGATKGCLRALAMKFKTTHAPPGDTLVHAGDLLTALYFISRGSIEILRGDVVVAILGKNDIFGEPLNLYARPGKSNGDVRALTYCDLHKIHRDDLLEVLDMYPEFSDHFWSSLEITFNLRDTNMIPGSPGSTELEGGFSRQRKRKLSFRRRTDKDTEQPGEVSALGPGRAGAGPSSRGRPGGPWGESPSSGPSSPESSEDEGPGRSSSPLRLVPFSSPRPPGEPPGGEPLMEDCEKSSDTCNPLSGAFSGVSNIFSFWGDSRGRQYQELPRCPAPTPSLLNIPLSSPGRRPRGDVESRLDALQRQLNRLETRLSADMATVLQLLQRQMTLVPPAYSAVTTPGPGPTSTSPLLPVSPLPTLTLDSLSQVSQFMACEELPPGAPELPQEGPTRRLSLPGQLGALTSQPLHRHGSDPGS
T2 sequence (Q13547 whole entry): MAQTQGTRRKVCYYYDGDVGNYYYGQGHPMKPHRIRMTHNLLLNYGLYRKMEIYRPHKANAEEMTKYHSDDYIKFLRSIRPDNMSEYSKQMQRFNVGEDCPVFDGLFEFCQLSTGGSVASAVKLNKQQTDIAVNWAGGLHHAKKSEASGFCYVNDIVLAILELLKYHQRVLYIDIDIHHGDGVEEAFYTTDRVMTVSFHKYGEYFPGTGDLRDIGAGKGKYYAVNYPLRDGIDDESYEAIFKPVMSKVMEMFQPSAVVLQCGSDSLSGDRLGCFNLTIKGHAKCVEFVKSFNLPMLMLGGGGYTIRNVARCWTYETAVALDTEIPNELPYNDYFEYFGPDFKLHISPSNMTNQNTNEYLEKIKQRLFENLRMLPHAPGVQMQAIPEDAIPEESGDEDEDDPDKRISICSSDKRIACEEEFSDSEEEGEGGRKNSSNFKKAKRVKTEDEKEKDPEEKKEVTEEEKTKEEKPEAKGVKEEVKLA

| SMILES | inhibition at 10 µM (glioma cell line U-87MG; [8]) [%] | inhibition at 10 µM [1, 9] [%] | inhibition at 10 µM [2, 10] [%] | IC50 (HDAC6) [nM] | inhibition at 10 µM [3, 11] [%] | protective effect against HCA-induced neuronal excitotoxicity (cell survival rate) [4] | inhibition at 10 µM [5] [%] | MTD at 14 days [6] [mg/kg] | IC50 (HDAC1) [nM] | pIC50 (hERG potassium channels) | inhibition at 10 µM (glioma cell line U-87MG; 48 h) [%] | inhibition at 10 µM ([1]; HepG2, 48 h) [%] | inhibition at 10 µM ([2]; MRC5, 48 h) [%] | inhibition at 10 µM ([3]; A549, 48 h) [%] | inhibition at 10 µM [7] [%] |
| --- | --- | --- | --- | --- | --- | --- | --- | --- | --- | --- | --- | --- | --- | --- | --- |
| COc1ccc2c(c1)CCCCN2Cc1ccc(C(=O)NO)cc1 [Compound T-5, 4-((7-methoxy-2,3,4,5-tetrahydro-1H-benzo[b]azepin-1-yl)methyl)-N-hydroxybenzamide] | 80 to 90 | 90 to 100 | < 50 | 5.6 | 70 to 80 | stronger than that of the HDAC6 inhibitor compound Tubastatin A | 90 to 100 | > 1000 | 257 | < 5.00 | – | – | – | – | – |
| O=C(NO)c1ccc(CN2CCCOc3ccccc32)cc1 [Compound T-15, 4-((3,4-dihydrobenzo[b][1,4]oxazepin-5(2H)-yl)methyl)-N-hydroxybenzamide] | 80 to 90 | 90 to 100 | < 50 | 6.2 | 50 to 70 | stronger than that of the HDAC6 inhibitor compound Tubastatin A | 90 to 100 | > 1000 | 367 | < 5.00 | – | – | – | – | – |
| O=C(NO)c1ccc(CN2CCCSc3ccccc32)cc1 [Compound T-16, 4-((3,4-dihydrobenzo[b][1,4]thiazepin-5(2H)-yl)methyl)-N-hydroxybenzamide] | – | – | – | 1.2 | – | stronger than that of the HDAC6 inhibitor compound Tubastatin A | – | > 1000 | 254 | < 5.00 | 90 to 100 | 90 to 100 | < 50 | 70 to 80 | 90 to 100 |
| O=C(NO)c1ccc(CN2CCCC(O)c3ccccc32)cc1 (stereo not shown) [Compound T-19, 4-((5-hydroxy-2,3,4,5-tetrahydro-1H-benzo[b]azepin-1-yl)methyl)-N-hydroxybenzamide] | 90 to 100 | 90 to 100 | < 50 | 6.4 | 50 to 70 | stronger than that of the HDAC6 inhibitor compound Tubastatin A | 90 to 100 | > 1000 | 442 | < 5.00 | – | – | – | – | – |
| COc1ccc(C2CC2)c2c1CCN(Cc1ccc(C(=O)NO)cc1)CC2 [Compound T-28, 4-((6-cyclopropyl-9-methoxy-1,2,4,5-tetrahydro-3H-benzo[d]azepin-3-yl)methyl)-N-hydroxybenzamide] | 80 to 90 | 90 to 100 | < 50 | 22 | 50 to 70 | stronger than that of the HDAC6 inhibitor compound Tubastatin A | 90 to 100 | > 1000 | > 500 | < 5.00 | – | – | – | – | – |
| O=C(CCCCCCNC(=O)c1cnc(N(c2ccccc2)c2ccccc2)nc1)NO [Rocilinostat (ACY-1215), Rocilinostat, reference compound] | – | – | – | – | – | – | – | – | – | – | 42.1 | 93.4 | 46.7 | 51.6 | 99.3 |
